Reference: patent EP0327365B1, “Improvements in or relating to modified haptens useful as imaging and therapeutic agents” (HYBRITECH INCORPORATED, priority 1988, dated 1989)

Legend:
T-380 tumors = experiment: Hapten biodistribution, premix protocol with bifunctional antibody ECH037.2; format: in vivo, nude mice; set-up: TOTAL RECOV: unit not given here; conditions: for % DOSE PER GRAM, KIDNEY / % DOSE PER GRAM, LIVER / % DOSE PER GRAM, TUMOR / FECES / TOTAL RECOV / URINE / % DOSE PER GRAM, BLOOD / TUMOR/BLOOD: premix with 20 µg ECH037.2; for % DOSE PER GRAM, BLOOD: 111In-labeled hapten i.v.; for TUMOR/BLOOD: ratio; for Percent Injected Dose in Feces: premix protocol (Table VI); for amount of hapten in the tumor / injected material excreted in the feces: premix protocol; for injected material excreted in the feces: 48 hrs. post injection
Description: Two protocols were used for examining the biodistribution of the derivatized haptens in the presence of the bifunctional antibody ECH037.2. In a premix protocol, ECH037.2 and the derivatized hapten were combined prior to injection in the animals. In the prelocalization protocol, ECH037.2 was injected into the animals, and the antibody was allowed to prelocalize for 24 hours prior to injection of the radiolabeled hapten.
Biodistribution studies were performed in nude mice carrying subcutaneous implants of the human colon carcinoma cell line T-380 which expresses the carcinoembryonic antigen (CEA) recognized by ECH037.2. Briefly, Balb/C Nu/Nu mice were injected subcutaneously with a minced preparation of T-380 tumor implants and maintained for approximately two weeks, or until the tumor implant had grown to a size of approximately 0.5 grams as described by Hagan, P.L., et al. J. Nuc. Med., 26 1418-1423 (1985). Mice were kept in a sterile environment to prevent complications due to bacterial or viral infections. Biodistributions were performed as described by Halpern, S., et al., Cancer Res. 43, 5347-5355 (1983). Briefly, the radiolabeled haptens were injected intravenously in […], and the pharmacokinetics were evaluated at several time points post-injection. At these times, mice were sacrificed and weighed. Organs were removed, their weight recorded, and each organ was then washed in sterile PBS, pH 7.0, and fixed in formalin solution. Samples of blood, urine and feces also were collected and their weight similarly recorded. The organs, or a portion thereof, were transferred to clean tubes and their radioactive content was determined in a well-type gamma-counter.
Relative radioactive content of each organ was expressed as a percentage of injected dose per organ.
To indium-label the haptens of the invention 10 »l of 0.1 mM ligand was combined with X »l of ¹¹¹InCl₃ (in 50 mM HCl) and (x+10) »l of 0.26 M ammonium citrate, pH 6.0. X is calculated by the following equation: X = (200 »Ci)/(A »Ci/»l) [formula] where A is the specific activity of the ¹¹¹In.
The labeling was done in an acid-washed microfuge tube. After combining all of the components above, the solution was vortexed and allowed to stand at room temperature for 15 minutes.
Incorporation of the ¹¹¹In into the chelating agent was determined by TLC on silica in a methanol/aqueous ammonium acetate solvent system as described by Meares, et al. (Anal. Biochem., 142, 68-75 (1984)). Greater than 95% incorporation of the radioactivity into the chelate was required for the sample to be submitted for a biodistribution assay.
Prior to injection the ¹¹¹In-labeled hapten was diluted into freshly prepared isotonic sodium bicarbonate (1.39% w/v) containing 1 mg/ml normal human serum albumin (Buminate, 25% solution, Travenol Laboratories, Glendale, California) to which the bifunctional antibody had been added. The final composition of the solution was 0.2 mg/ml ECH037.2, 0.5 »M chelate, 0.1 »Ci/»l ¹¹¹In, all in a volume of 2.0 ml. For the biodistribution studies, 100 »l of the solution was injected into the tail vein of each animal.

[1] = system: monoclonal antibody CHA255; experiment: Determination of hapten-antibody dissociation rates; format: binding, BALB/c mice; conditions: 22°C; indium complex of hapten from CHA255 after 100 fold excess of indium-115 loaded hapten
Description: Hapten-antibody dissociation rates were determined using monoclonal antibody CHA255, prepared as described in Example 2A, by measuring the quantity of ¹¹¹In³⁺ chelate released from the antibody hapten complex as a function of time after addition of a 100 fold excess (over antibody binding sites) of indium-115 loaded hapten. Thus, for each hapten, a 700 »l solution was prepared containing: antibody at a concentration of 160 nM; indium loaded hapten, trace labeled with ¹¹¹In (total concentration = 160 nM); normal human serum albumin at a total concentration of 1.5 mg/mL; and isotonic phosphate buffered saline, (10 mM PO₄²⁻, 150 mM NaCl, pH 7.2). Indium-115 loaded hapten was added to a final Concentration of […]. Reactions were stirred by placing the sample containers ir a rack mounted on a vortexer head.
At various times after addition of the excess hapten, […] portions of the reaction solutions were transferred to Centrifree tubes (Amicon Corperation, Danvers, Massachusetts) and centrifuged at 1500xg for eight to ten minutes. The reaction time was taken to be the time between addition of the excess hapten and the time the centrifuge reached the desired velocity. Six timepoints, each in duplicate, were obtained over a range of about two reaction half-lives for each rate constant determination. A 200 »l portion from each centrifuged and uncentrifuged solution was then counted for ¹¹¹In. The relative concentration of free hapten was taken to be the ratio of counts in the centrifuged solution to the uncentrifuged solution at each timepoint. Times were recorded to the nearest tenth of a minute.
Room temperature rate constants were measured without the aid of a constant temperature bath. The ambient temperature remained at 22°±1 C.
Rate constants and standard deviations were obtained from a plot of the logarithm of relative complex concentration vs. time. Data were analyzed using the linear regression module of the RS/1 Program (BBN Software Products Corporation, Cambridge, Massachusetts).
Control samples were included in each experiment to determine: A) that the initial condition of 100% of labeled hapten bound to antibody was met, and B) that in the absence of antibody, 100% of counts were able to penetrate the Centrifree membrane. […]

Compound	% DOSE PER GRAM, KIDNEY (T-380 tumors; 24 hours)	% DOSE PER GRAM, LIVER (T-380 tumors; 24 hours)	% DOSE PER GRAM, TUMOR (T-380 tumors; 24 hours)	FECES (T-380 tumors; 24 hours)	TOTAL RECOV (T-380 tumors; 24 hours)	URINE (T-380 tumors; 24 hours)	% DOSE PER GRAM, BLOOD (T-380 tumors; 24 hours)	TUMOR/BLOOD (T-380 tumors; 24 hours)	Percent Injected Dose in Feces (T-380 tumors; 24 hrs.)	% DOSE PER GRAM, KIDNEY (T-380 tumors; 48 hours)	% DOSE PER GRAM, LIVER (T-380 tumors; 48 hours)	% DOSE PER GRAM, TUMOR (T-380 tumors; 48 hours)	FECES (T-380 tumors; 48 hours)	TOTAL RECOV (T-380 tumors; 48 hours)	URINE (T-380 tumors; 48 hours)	% DOSE PER GRAM, BLOOD (T-380 tumors; 48 hours)	TUMOR/BLOOD (T-380 tumors; 48 hours)	Percent Injected Dose in Feces (T-380 tumors; 48 hrs.)	t1/2, Dissociation Half-Lives [1]	amount of hapten in the tumor (T-380 tumors; 24 hrs.)	also measured
CC(=O)NC(CCCCNC(=S)Nc1ccc(CC(CN(CC(=O)O)CC(=O)O)N(CC(=O)O)CC(=O)O)cc1)C(N)=O (stereo not drawn) [BALTUBE]	3.6 % DOSE PER GRAM	4.0 % DOSE PER GRAM	13.0 % DOSE PER GRAM	6.8% of total injected dose	52.0	16.3% of total injected dose	11.0 % DOSE PER GRAM	1.18	8.5 Percent Injected Dose	1.9 % DOSE PER GRAM	2.2 % DOSE PER GRAM	12.9 % DOSE PER GRAM	13.8% of total injected dose	57.8	26.5% of total injected dose	5.2 % DOSE PER GRAM	2.48	13.8 Percent Injected Dose	90.9 min	–	–
O=C(O)CCCNC(=S)Nc1ccc(CC(CN(CC(=O)O)CC(=O)O)N(CC(=O)O)CC(=O)O)cc1 (stereo not drawn) [BATUBE]	2.5 % DOSE PER GRAM	3.3 % DOSE PER GRAM	11.5 % DOSE PER GRAM	6.9% of total injected dose	50.8	20.0% of total injected dose	11.8 % DOSE PER GRAM	0.97	6.9 Percent Injected Dose	1.5 % DOSE PER GRAM	2.0 % DOSE PER GRAM	12.1 % DOSE PER GRAM	21.1% of total injected dose	68.3	30.4% of total injected dose	7.9 % DOSE PER GRAM	1.53	21.1 Percent Injected Dose	74.3 min	–	–
O=C(O)CN(CC(=O)O)CC(Cc1ccc(NC(=S)NCc2ccccc2)cc1)N(CC(=O)O)CC(=O)O (stereo not drawn) [BETUBE]	2.5 % DOSE PER GRAM	2.7 % DOSE PER GRAM	8.0 % DOSE PER GRAM	17.4% of total injected dose	44.6	8.4% of total injected dose	9.0 % DOSE PER GRAM	0.89	17.4 Percent Injected Dose	1.5 % DOSE PER GRAM	1.9 % DOSE PER GRAM	7.5 % DOSE PER GRAM	29.0% of total injected dose	54.2	12.0% of total injected dose	5.5 % DOSE PER GRAM	1.36	29.0 Percent Injected Dose	94.2 min	–	–
CCCCNC(=S)Nc1ccc(CC(CN(CC(=O)O)CC(=O)O)N(CC(=O)O)CC(=O)O)cc1 (stereo not drawn) [BUTUBE]	1.7 % DOSE PER GRAM	3.4 % DOSE PER GRAM	5.3 % DOSE PER GRAM	16.8% of total injected dose	63.8	22.0% of total injected dose	9.0 % DOSE PER GRAM	0.59	16.8 Percent Injected Dose	1.2 % DOSE PER GRAM	3.8 % DOSE PER GRAM	5.7 % DOSE PER GRAM	26.5% of total injected dose	69.3	27.0% of total injected dose	5.8 % DOSE PER GRAM	0.98	26.5 Percent Injected Dose	90.6 min	5.3 percent injected dose/gram	injected material excreted in the feces (T-380 tumors): 26.5% of the injected material; amount of hapten in the tumor (T-380 tumors; 48 hrs.): 5.7 percent injected dose/gram
CCNC(=S)Nc1ccc(CC(CN(CC(=O)O)CC(=O)O)N(CC(=O)O)CC(=O)O)cc1 (stereo not drawn) [ETUBE]	2.4 % DOSE PER GRAM	3.5 % DOSE PER GRAM	8.0 % DOSE PER GRAM	5.9% of total injected dose	52.2	25.8% of total injected dose	10.4 % DOSE PER GRAM	0.77	6.7 Percent Injected Dose	1.2 % DOSE PER GRAM	2.4 % DOSE PER GRAM	10.4 % DOSE PER GRAM	15.2% of total injected dose	66.6	36.0% of total injected dose	5.9 % DOSE PER GRAM	1.76	15.2 Percent Injected Dose	72.6 min	8.0 percent injected dose/gram	injected material excreted in the feces (T-380 tumors): 15.2% of the injected material; amount of hapten in the tumor (T-380 tumors; 48 hrs.): 10.4 percent injected dose/gram
O=C(O)CCCC(=O)NCCNC(=S)Nc1ccc(CC(CN(CC(=O)O)CC(=O)O)N(CC(=O)O)CC(=O)O)cc1 (stereo not drawn) [GNUBE]	2.7 % DOSE PER GRAM	3.4 % DOSE PER GRAM	9.0 % DOSE PER GRAM	10.6% of total injected dose	52.0	14.2% of total injected dose	13.0 % DOSE PER GRAM	0.70	10.6 Percent Injected Dose	1.5 % DOSE PER GRAM	2.4 % DOSE PER GRAM	12.0 % DOSE PER GRAM	17.8% of total injected dose	63.1	26.9% of total injected dose	8.0 % DOSE PER GRAM	1.49	17.8 Percent Injected Dose	98.8 min	–	–
